# Experiments:
# Solubility = type: physicochemical
# RIF-1 tumors = test: Murine tumor growth delay model (RIF-1 tumors in C3H mice); details: same doses, IP; for Median (days to 4×): median tumor volume quadrupling time; for T/C (tumor growth delay ratio): ratio of 4× growth times of treated and untreated control tumors; for Delay (tumor growth delay): versus untreated control
# Protocol: C3H mice were inoculated subcutaneously in the flank with 2×10^5 radiation-induced fibrosarcoma cells (RIF-1) to produce experimental tumors. When tumors reached ˜100 mm^3, test compounds (100 uL) were administered intraperitoneally (IP).
# Single compound groups received either amonafide (60 mg/kg), caffeine (75 mg/kg), or nicotinamide (1000 mg/kg).
# Combination groups received amonafide (60 mg/kg), in combination with either caffeine (75 mg/kg), or nicotinamide (1000 mg/kg).
# All compounds were administered at the same concentration as the combination groups (amonafide (60 mg/kg), caffeine (75 mg/kg), nicotinamide (1000 mg/kg). Sequential groups included one group treated with amonafide followed by treatment with caffeine, one group treated with caffeine followed by treatment with amonafide, one group treated with amonafide followed by treatment with nicotinamide, and one group treated with nicotinamide followed by treatment with amonafide.
# Four mice were used in each treatment group.
# Tumors were measured 3 times a week using Vernier calipers, and tumor volume (V) was calculated according to the formula: [formula]
# Where D1-3 are perpendicular diameters measured in millimeters (mm).
# Tumor volume quadrupling time was defined as the time (days) for treated and untreated tumors to grow to four times (4×) their initial treatment volume. Tumor growth delay ratio (T/C) was defined as the ratio of 4× growth times of treated (T) and untreated control (C) tumors.
compound,measurement,setting,value
"CN(C)CCN1C(=O)c2cccc3cc(N)cc(c23)C1=O [Amonafide, 5-amino-2-[(dimethylamine)ethyl]-1H-benz[de-]isoquinoline-1,3-(2H)-dione]",Solubility in water compared to monohydrochloride salt,Solubility,more soluble in water
same,Solubility in saline,Solubility; at therapeutic concentrations,soluble in saline at therapeutic concentrations
same,Median (days to 4×),RIF-1 tumors,7.5
same,T/C (tumor growth delay ratio),RIF-1 tumors,1.6
same,Delay (tumor growth delay),RIF-1 tumors,2.97
"Cn1c(=O)c2c(ncn2C)n(C)c1=O [Caffeine, caffeine]",Median (days to 4×),RIF-1 tumors,5.5
same,T/C (tumor growth delay ratio),RIF-1 tumors,1.2
same,Delay (tumor growth delay),RIF-1 tumors,1.01
"NC(=O)c1cccnc1 [Nicotinamide, nicotinamide]",Median (days to 4×),RIF-1 tumors,5.3
same,T/C (tumor growth delay ratio),RIF-1 tumors,1.1
same,Delay (tumor growth delay),RIF-1 tumors,0.76

# From patent publication US20050288310A1, “Methods of treating cellular proliferative disease using naphthalimide and PARP-1 inhibitors” (priority 2004, published 2005)
